Results taken from PubChem BioAssay (NCI).
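Test compounds were applied to cells in 96-well plates for 48 hours at 5 doses. At the TGI there is no net growth.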

What was measured:
Assay in all cases: DTP human tumour cell line panel, 48 h
SK-MEL-2 melanoma = system: SK-MEL-2 melanoma
UACC-62 melanoma = system: UACC-62 melanoma
NCI-H23 lung = system: NCI-H23 lung
HCC-2998 colon = system: HCC-2998 colon
CCRF-CEM leukemia = system: CCRF-CEM leukemia
SF-295 CNS = system: SF-295 CNS
KM12 colon = system: KM12 colon
NCI-H460 lung = system: NCI-H460 lung
EKVX NSCLC = system: EKVX NSCLC
HL-60(TB) leukemia = system: HL-60(TB) leukemia
K-562 leukemia = system: K-562 leukemia
TK-10 renal = system: TK-10 renal
UACC-257 melanoma = system: UACC-257 melanoma
T-47D breast = system: T-47D breast
SK-OV-3 ovarian = system: SK-OV-3 ovarian
NCI-H522 lung = system: NCI-H522 lung
COLO 205 colon = system: COLO 205 colon
HOP-92 NSCLC = system: HOP-92 NSCLC
MOLT-4 leukemia = system: MOLT-4 leukemia
MCF7 breast = system: MCF7 breast
RXF 393 renal = system: RXF 393 renal
CAKI-1 renal = system: CAKI-1 renal
SR leukemia = system: SR leukemia
IGROV1 ovarian = system: IGROV1 ovarian
OVCAR-8 ovarian = system: OVCAR-8 ovarian
OVCAR-5 ovarian = system: OVCAR-5 ovarian
A549 NSCLC = system: A549 NSCLC
SK-MEL-5 melanoma = system: SK-MEL-5 melanoma
LOX IMVI melanoma = system: LOX IMVI melanoma
OVCAR-4 ovarian = system: OVCAR-4 ovarian
NCI-H226 lung = system: NCI-H226 lung
SF-268 CNS = system: SF-268 CNS
786-0 renal = system: 786-0 renal
HOP-62 NSCLC = system: HOP-62 NSCLC
SF-539 CNS = system: SF-539 CNS
NCI/ADR-RES ovarian = system: NCI/ADR-RES ovarian
HS 578T breast = system: HS 578T breast
UO-31 renal = system: UO-31 renal
MDA-MB-231 breast = system: MDA-MB-231 breast
HCT-116 colon = system: HCT-116 colon
M14 melanoma = system: M14 melanoma
HCT-15 colon = system: HCT-15 colon
RPMI-8226 leukemia = system: RPMI-8226 leukemia
MDA-N = system: MDA-N
SW-620 colon = system: SW-620 colon
U251 CNS = system: U251 CNS
PC-3 prostate = system: PC-3 prostate
HT29 colon = system: HT29 colon
BT-549 breast = system: BT-549 breast
SNB-75 CNS = system: SNB-75 CNS
SK-MEL-28 melanoma = system: SK-MEL-28 melanoma
SN12C renal = system: SN12C renal
DU-145 prostate = system: DU-145 prostate
OVCAR-3 ovarian = system: OVCAR-3 ovarian
SNB-19 CNS = system: SNB-19 CNS
ACHN renal = system: ACHN renal
MDA-MB-435 = system: MDA-MB-435
A498 renal = system: A498 renal
MALME-3M melanoma = system: MALME-3M melanoma

SMILES: O=C(CC(C(=O)c1cccs1)c1ccccc1)c1ccccc1O (centres undefined)
- TGI (SK-MEL-2 melanoma): > 100 µM
- TGI (UACC-62 melanoma): > 44.6 µM
- TGI (NCI-H23 lung): > 100 µM
- TGI (HCC-2998 colon): > 100 µM
- TGI (CCRF-CEM leukemia): > 100 µM
- TGI (SF-295 CNS): > 27.9 µM
- TGI (KM12 colon): > 100 µM
- TGI (NCI-H460 lung): > 100 µM
- TGI (EKVX NSCLC): > 100 µM
- TGI (HL-60(TB) leukemia): > 44 µM
- TGI (K-562 leukemia): 46.6 µM
- TGI (TK-10 renal): > 74.5 µM
- TGI (UACC-257 melanoma): > 100 µM
- TGI (T-47D breast): > 40 µM
- TGI (SK-OV-3 ovarian): > 100 µM
- TGI (NCI-H522 lung): 10.4 µM
- TGI (COLO 205 colon): > 100 µM
- TGI (HOP-92 NSCLC): > 38.9 µM
- TGI (MOLT-4 leukemia): > 38.4 µM
- TGI (MCF7 breast): > 38.7 µM
- TGI (RXF 393 renal): 27.9 µM
- TGI (CAKI-1 renal): > 67.3 µM
- TGI (SR leukemia): > 52.5 µM
- TGI (IGROV1 ovarian): > 57.3 µM
- TGI (OVCAR-8 ovarian): > 100 µM
- TGI (OVCAR-5 ovarian): > 100 µM
- TGI (A549 NSCLC): > 100 µM
- TGI (SK-MEL-5 melanoma): > 100 µM
- TGI (LOX IMVI melanoma): > 47.4 µM
- TGI (OVCAR-4 ovarian): > 64.2 µM
- TGI (NCI-H226 lung): > 100 µM
- TGI (SF-268 CNS): > 35.1 µM
- TGI (786-0 renal): > 38.4 µM
- TGI (HOP-62 NSCLC): > 48.1 µM
- TGI (SF-539 CNS): > 100 µM
- TGI (NCI/ADR-RES ovarian): > 25.3 µM
- TGI (HS 578T breast): > 22.9 µM
- TGI (UO-31 renal): > 100 µM
- TGI (MDA-MB-231 breast): > 30 µM
- TGI (HCT-116 colon): > 100 µM
- TGI (M14 melanoma): > 100 µM
- TGI (HCT-15 colon): > 100 µM
- TGI (RPMI-8226 leukemia): > 100 µM
- TGI (MDA-N): > 100 µM
- TGI (SW-620 colon): > 100 µM
- TGI (U251 CNS): > 30.2 µM
- TGI (PC-3 prostate): > 100 µM
- TGI (HT29 colon): > 100 µM
- TGI (BT-549 breast): > 100 µM
- TGI (SNB-75 CNS): > 55.7 µM
- TGI (SK-MEL-28 melanoma): > 100 µM
- TGI (SN12C renal): > 100 µM
- TGI (DU-145 prostate): > 100 µM
- TGI (OVCAR-3 ovarian): > 100 µM
- TGI (SNB-19 CNS): > 100 µM
- TGI (ACHN renal): > 44.8 µM

SMILES: CCOC(=O)c1c[nH]c2cc3c(cc2c1=O)CCS3
- TGI (MDA-MB-435): > 100 µM
- TGI (A498 renal): > 100 µM
- TGI (SK-MEL-2 melanoma): > 100 µM
- TGI (UACC-62 melanoma): > 100 µM
- TGI (NCI-H23 lung): > 100 µM
- TGI (HCC-2998 colon): > 100 µM
- TGI (CCRF-CEM leukemia): > 100 µM
- TGI (SF-295 CNS): > 100 µM
- TGI (KM12 colon): > 100 µM
- TGI (NCI-H460 lung): > 100 µM
- TGI (EKVX NSCLC): > 100 µM
- TGI (HL-60(TB) leukemia): > 100 µM
- TGI (K-562 leukemia): > 100 µM
- TGI (TK-10 renal): > 100 µM
- TGI (UACC-257 melanoma): > 100 µM
- TGI (T-47D breast): > 100 µM
- TGI (SK-OV-3 ovarian): > 100 µM
- TGI (NCI-H522 lung): > 100 µM
- TGI (COLO 205 colon): > 100 µM
- TGI (HOP-92 NSCLC): > 100 µM
- TGI (MOLT-4 leukemia): > 100 µM
- TGI (MCF7 breast): > 100 µM
- TGI (RXF 393 renal): > 100 µM
- TGI (CAKI-1 renal): > 100 µM
- TGI (IGROV1 ovarian): > 100 µM
- TGI (MALME-3M melanoma): > 100 µM
- TGI (OVCAR-8 ovarian): > 100 µM
- TGI (OVCAR-5 ovarian): > 100 µM
- TGI (A549 NSCLC): > 100 µM
- TGI (SK-MEL-5 melanoma): > 100 µM
- TGI (LOX IMVI melanoma): > 100 µM
- TGI (OVCAR-4 ovarian): > 100 µM
- TGI (NCI-H226 lung): > 100 µM
- TGI (SF-268 CNS): > 100 µM
- TGI (786-0 renal): > 100 µM
- TGI (HOP-62 NSCLC): > 100 µM
- TGI (SF-539 CNS): > 100 µM
- TGI (NCI/ADR-RES ovarian): > 100 µM
- TGI (HS 578T breast): > 100 µM
- TGI (UO-31 renal): > 100 µM
- TGI (MDA-MB-231 breast): > 100 µM
- TGI (HCT-116 colon): > 100 µM
- TGI (M14 melanoma): > 100 µM
- TGI (HCT-15 colon): > 100 µM
- TGI (RPMI-8226 leukemia): > 100 µM
- TGI (MDA-N): > 100 µM
- TGI (SW-620 colon): > 100 µM
- TGI (U251 CNS): > 100 µM
- TGI (PC-3 prostate): > 100 µM
- TGI (HT29 colon): > 100 µM
- TGI (BT-549 breast): > 100 µM
- TGI (SNB-75 CNS): > 100 µM
- TGI (SK-MEL-28 melanoma): > 100 µM
- TGI (SN12C renal): > 100 µM
- TGI (DU-145 prostate): > 100 µM
- TGI (OVCAR-3 ovarian): > 100 µM
- TGI (SNB-19 CNS): > 100 µM
- TGI (ACHN renal): > 100 µM
